Publication PMC4747340, “A new class of small molecule estrogen receptor-alpha antagonists that overcome anti-estrogen resistance” (Oncotarget, 2015)

Experiments:
Type in all cases: cell-based
[1] = target: T1, estrogen receptor-alpha (ER) (Homo sapiens, UniProt P03372); assay: constitutive ER activity, ERE-TK-Luc reporter, in anti-estrogen resistant LCC9 cells; parameters: LCC9 cells in 24-well dishes were transfected overnight with the ERE-TK-Luc reporter plasmid; endogenous in cells; host or cells: LCC9; conditions: compound plus Tam compared with compound alone, 24 hr
T1 sequence (P03372 1-595): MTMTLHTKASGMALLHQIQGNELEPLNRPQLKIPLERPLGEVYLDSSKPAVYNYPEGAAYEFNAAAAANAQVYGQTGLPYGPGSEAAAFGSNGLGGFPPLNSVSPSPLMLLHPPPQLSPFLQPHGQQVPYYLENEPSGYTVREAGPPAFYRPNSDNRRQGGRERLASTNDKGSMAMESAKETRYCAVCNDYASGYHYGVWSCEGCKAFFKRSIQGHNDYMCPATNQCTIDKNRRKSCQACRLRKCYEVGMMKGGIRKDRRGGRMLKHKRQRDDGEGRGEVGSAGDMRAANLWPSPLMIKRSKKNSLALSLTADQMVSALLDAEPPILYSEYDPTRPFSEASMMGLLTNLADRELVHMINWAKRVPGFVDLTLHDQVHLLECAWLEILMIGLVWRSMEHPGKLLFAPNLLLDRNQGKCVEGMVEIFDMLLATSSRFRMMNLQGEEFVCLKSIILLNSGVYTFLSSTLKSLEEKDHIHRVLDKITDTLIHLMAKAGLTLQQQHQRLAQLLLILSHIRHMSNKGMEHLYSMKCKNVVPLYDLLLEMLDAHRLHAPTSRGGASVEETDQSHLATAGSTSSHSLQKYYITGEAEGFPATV
Method: For MCF-7, luciferase activity is expressed as a fold-change relative to the no E2 control. For LCC9, luciferase activity is expressed relative to the control without the reporter present. Values plotted are means ± SEMs of four replicate wells. The data shown in each panel are representative of three independent experiments.
The cells were then treated with the indicated concentrations of the six bioactive compounds or vehicle only (DMSO) for 24-hr and assayed for luciferase activity. Luciferase activity is expressed as a percentage of the DMSO control. Values are means ± SEMs of four replicate wells. The data shown in each panel are representative of three independent experiments.
The cells were then harvested for luciferase assays. Luciferase activity was expressed as a fold-change relative to the no reporter control. Values plotted are means ± SEMs of four replicate wells. The data shown are representative of three independent experiments.
(§1) Subconfluent cells in 24-well dishes were transfected overnight with 0.25 μg of each indicated vector plus the ERE-TK-Luc reporter in serum-free DMEM containing Lipofectamine2000 (Life Technologies, Washington, DC). Total transfected DNA was kept constant by addition of control vector. The cells were washed, incubated in phenol red-free DMEM containing 5% charcoal-stripped serum (obtained from the Tissue Culture Shared Resource) (0.2 ml/well) ± E2 (10 nM) ± the indicated compound for 24-hr, and harvested for luciferase assays. For each assay condition was tested in quadrupicate. To monitor the transfection efficiency, cultures were co-transfected with plasmid pRSV-β-gal (Promega, Madison, WI) to visualize transfected cells by X-gal staining.

ER Leu327Ala = target: T2, ER Leu327Ala (Homo sapiens, UniProt P03372, L327A); assay: ER mutation analysis, ERE-TK-Luc reporter in transfected MDA-MB-231 cells; conditions: MDA-MB-231 transfected with mutant ER, E2 10 nM, 24 hr
T2 construct: expressed in transfected cells; host or cells: MDA-MB-231
Description: (§2) B., C. Panels B and C show a comparison of the ER interaction of one of our original series of compounds (A7) (B) and one new compounds (48693-K/1) (C). ER is represented by gray ribbon and its residues interacting with the compounds are drawn with wireframe and labeled. […] The hydrogen bond interaction with ARG 394 is shown in green line. […] The cells were harvested for luciferase assays. Luciferase values are expressed as a percent of the +E2 vehicle control and are means ± SEMs of four wells. The data shown in panels D to G are representative of three independent experiments.
as §1

ER Pro324Ala = target: T3, ER Pro324Ala (Homo sapiens, UniProt P03372, P324A); assay: as above; conditions: MDA-MB-231 transfected with mutant ER, E2 10 nM, 24 hr
T3 construct: expressed in transfected cells; host or cells: MDA-MB-231
Description: as §2, §1

ER Ile386Ala+Leu387Ala = target: T4, ER Ile386Ala+Leu387Ala (Homo sapiens, UniProt P03372, I386A/L387A); assay: as above; conditions: MDA-MB-231 transfected with mutant ER, E2 10 nM, 24 hr
T4 construct: expressed in transfected cells; host or cells: MDA-MB-231
Description: as §2, §1

Wild-type ER = target: T5, Wild-type ER (Homo sapiens, UniProt P03372); assay: as above; conditions: MDA-MB-231 transfected with wtER, E2 10 nM, 24 hr
T5 construct: expressed in transfected cells; host or cells: MDA-MB-231
Description: as §2, §1

ER Lys449Ala = target: T6, ER Lys449Ala (Homo sapiens, UniProt P03372, K449A); assay: as above; conditions: MDA-MB-231 transfected with mutant ER, E2 10 nM, 24 hr
T6 construct: expressed in transfected cells; host or cells: MDA-MB-231
Description: as §2, §1

ER Pro325Ala = target: T7, ER Pro325Ala (Homo sapiens, UniProt P03372, P325A); assay: as above; conditions: MDA-MB-231 transfected with mutant ER, E2 10 nM, 24 hr
T7 construct: expressed in transfected cells; host or cells: MDA-MB-231
Description: as §2, §1

ER Ile326Ala = target: T8, ER Ile326Ala (Homo sapiens, UniProt P03372, I326A); assay: as above; conditions: MDA-MB-231 transfected with mutant ER, E2 10 nM, 24 hr
T8 construct: expressed in transfected cells; host or cells: MDA-MB-231
Description: as §2, §1

ER His356Ala = target: T9, ER His356Ala (Homo sapiens, UniProt P03372, H356A); assay: as above; conditions: MDA-MB-231 transfected with mutant ER, E2 10 nM, 24 hr
T9 construct: expressed in transfected cells; host or cells: MDA-MB-231
Description: as §2, §1

ER Leu387Ala = target: T10, ER Leu387Ala (Homo sapiens, UniProt P03372, L387A); assay: as above; conditions: MDA-MB-231 transfected with mutant ER, E2 10 nM, 24 hr
T10 construct: expressed in transfected cells; host or cells: MDA-MB-231
Description: as §2, §1

ER Prol325Ala = target: T11, ER Prol325Ala (Homo sapiens, UniProt P03372, P325A); assay: as above; conditions: MDA-MB-231 transfected with mutant ER, E2 10 nM, 24 hr; second row for residue 325
T11 construct: expressed in transfected cells; host or cells: MDA-MB-231
Description: as §2, §1

ER Glu353Ala = target: T12, ER Glu353Ala (Homo sapiens, UniProt P03372, E353A); assay: as above; conditions: MDA-MB-231 transfected with mutant ER, E2 10 nM, 24 hr
T12 construct: expressed in transfected cells; host or cells: MDA-MB-231
Description: as §2, §1

ER Glu323Ala = target: T13, ER Glu323Ala (Homo sapiens, UniProt P03372, E323A); assay: as above; conditions: MDA-MB-231 transfected with mutant ER, E2 10 nM, 24 hr
T13 construct: expressed in transfected cells; host or cells: MDA-MB-231
Description: as §2, §1

ER Trp393Ala = target: T14, ER Trp393Ala (Homo sapiens, UniProt P03372, W393A); assay: as above; conditions: MDA-MB-231 transfected with mutant ER, E2 10 nM, 24 hr
T14 construct: expressed in transfected cells; host or cells: MDA-MB-231
Description: as §2, §1

ER Arg394Ala = target: T15, ER Arg394Ala (Homo sapiens, UniProt P03372, R394A); assay: as above; conditions: MDA-MB-231 transfected with mutant ER, E2 10 nM, 24 hr
T15 construct: expressed in transfected cells; host or cells: MDA-MB-231
Description: as §2, §1

ER Ile386Ala = target: T16, ER Ile386Ala (Homo sapiens, UniProt P03372, I386A); assay: as above; conditions: MDA-MB-231 transfected with mutant ER, E2 10 nM, 24 hr
T16 construct: expressed in transfected cells; host or cells: MDA-MB-231
Description: as §2, §1

T2 sequence (P03372 whole entry L327A): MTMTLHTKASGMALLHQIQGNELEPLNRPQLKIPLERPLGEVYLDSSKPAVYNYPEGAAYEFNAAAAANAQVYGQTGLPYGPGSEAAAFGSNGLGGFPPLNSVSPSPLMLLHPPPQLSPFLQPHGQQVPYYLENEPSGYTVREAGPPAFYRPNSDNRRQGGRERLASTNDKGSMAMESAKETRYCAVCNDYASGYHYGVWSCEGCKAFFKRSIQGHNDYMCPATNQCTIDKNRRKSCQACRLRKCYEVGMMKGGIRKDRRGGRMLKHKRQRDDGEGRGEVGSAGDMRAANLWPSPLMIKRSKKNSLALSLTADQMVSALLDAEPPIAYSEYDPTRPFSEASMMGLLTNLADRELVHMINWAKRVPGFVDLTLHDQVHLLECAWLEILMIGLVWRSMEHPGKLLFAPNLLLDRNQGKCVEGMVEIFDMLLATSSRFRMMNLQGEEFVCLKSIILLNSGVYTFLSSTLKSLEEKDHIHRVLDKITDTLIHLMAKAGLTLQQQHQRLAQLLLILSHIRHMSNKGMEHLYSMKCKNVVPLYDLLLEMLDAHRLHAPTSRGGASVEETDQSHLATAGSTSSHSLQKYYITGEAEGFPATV
T6 sequence (P03372 whole entry K449A): as the sequence (P03372 whole entry L327A) above, with A327L, K449A counted along it
T3 sequence (P03372 whole entry P324A): as the sequence (P03372 whole entry L327A) above, with P324A, A327L counted along it
T16 sequence (P03372 whole entry I386A): as the sequence (P03372 whole entry L327A) above, with A327L, I386A counted along it
T14 sequence (P03372 whole entry W393A): as the sequence (P03372 whole entry L327A) above, with A327L, W393A counted along it
T10 sequence (P03372 whole entry L387A): as the sequence (P03372 whole entry L327A) above, with A327L, L387A counted along it
T4 sequence (P03372 whole entry I386A/L387A): as the sequence (P03372 whole entry L327A) above, with A327L, I386A, L387A counted along it
T8 sequence (P03372 whole entry I326A): as the sequence (P03372 whole entry L327A) above, with I326A, A327L counted along it
T12 sequence (P03372 whole entry E353A): as the sequence (P03372 whole entry L327A) above, with A327L, E353A counted along it
T7 sequence (P03372 whole entry P325A): as the sequence (P03372 whole entry L327A) above, with P325A, A327L counted along it
T11 sequence (P03372 whole entry P325A): as the sequence (P03372 whole entry L327A) above, with P325A, A327L counted along it
T13 sequence (P03372 whole entry E323A): as the sequence (P03372 whole entry L327A) above, with E323A, A327L counted along it
T15 sequence (P03372 whole entry R394A): as the sequence (P03372 whole entry L327A) above, with A327L, R394A counted along it
T9 sequence (P03372 whole entry H356A): as the sequence (P03372 whole entry L327A) above, with A327L, H356A counted along it

IC50 (ER Leu327Ala): 12 µM
IC50 (ER Pro324Ala): 3 µM
IC50 (ER Ile386Ala+Leu387Ala): 2.5 µM
IC50 (Wild-type ER): 2.5 µM
IC50 (ER Lys449Ala): 2 µM
IC50 (ER Pro325Ala): 7 µM
IC50 (ER Ile326Ala): 13 µM
IC50 (ER His356Ala): 11 µM
IC50 (ER Leu387Ala): 2.5 µM
IC50 (ER Prol325Ala): 7 µM
IC50 (ER Glu353Ala): 11 µM
IC50 (ER Glu323Ala): 13 µM
IC50 (ER Trp393Ala): 12 µM
IC50 (ER Arg394Ala): 12 µM
IC50 (ER Ile386Ala): 2.5 µM
Structure (SMILES): Oc1cc(CN2COc3ccccc32)c(O)cc1CNC1CCCCC1 [A7, reference compound]
ER activity in LCC9 cells, compound combined with Tam [1]: no more inhibition of ER activity than A7 alone
